Measured values: patent US10526287B2, “LSD1 inhibitors and uses thereof” (Constellation Pharmaceuticals, Inc., priority 2015, dated 2020)
Where a name gives a salt, the structure may show the parent alone. Read-outs that look alike come from different tables or passages of the source.

Target: LSD1 (Homo sapiens, UniProt O60341)
Experiment: Biochemical assay for LSD1 activity (LSD1 demethylase TR-FRET)
[1] = Table 6, biotinylated H3K4me1 peptide, 50 minutes at room temperature, TR-FRET, read-out: LSD1_Pep_TR-FRET_1.0 (IC50 T50)
[2] = Table 7, biotinylated H3K4me1 peptide, 50 minutes at room temperature, TR-FRET, read-out: LSD1_Pep_TR-FRET_1.0 (IC50 T50)
[3] = Table 5, biotinylated H3K4me1 peptide, 50 minutes at room temperature, TR-FRET, read-out: LSD1_Pep_TR-FRET_1.0 (IC50 T50)

SMILES	IC50 [1]	other results
CC/C(=C\c1ccccc1)[C@@H]1C[C@H]1NC[C@H]1C[C@H](N)C1 (racemic) [Compound 239]		IC50 [2]: < 100 nM
C/C(=C\c1ccccc1)[C@@H]1C[C@H]1NC1CCN(Cc2ccc[nH]c2=O)CC1 (racemic) [Compound 134, 3-((4-(((trans)-2-((E)-1-phenylprop-1-en-2-yl)cyclopropyl)amino)piperidin-1-yl)methyl)pyridin-2(1H)-one bis(2,2,2-trifluoroacetate)]	< 100 nM	
CC/C(=C\c1ccccc1)[C@@H]1C[C@H]1NC1CC2(C1)CN(Cc1ccc(C(=O)O)cc1)C2 (racemic) [Compound 226, 4-((6-(((trans)-2-((E)-1-phenylbut-en-2-yl)cyclopropyl)amino)-2-azaspiro[3.3]heptan-2-yl)methyl)benzoic acid bis trifluoroacetate]		IC50 [2]: < 100 nM
C/C(=C\c1ccccc1)[C@@H]1C[C@H]1N[C@H]1CC[C@H](N(C)C)CC1 (single isomer, unassigned) [Compound 138, (trans)-N^1,N^1-dimethyl-N^4-((trans)-2-((E)-1-phenylprop-1-en-2-yl)cyclopropyl)cyclohexane-1,4-diamine]	< 100 nM	
CC/C(=C\c1ccccc1)[C@@H]1C[C@H]1NC1CC2(C1)CN(CC(N)=O)C2 (single isomer, unassigned) [Compound 268, 2-(6-(((1R,2S or 1S,2R)-2-(E)-1-phenylbut-1-en-2-yl)cyclopropyl)amino)-2-azaspiro[3.3]heptan-2-yl)acetamide Bis Trifluoroacetate (Single Stereoisomer)]		IC50 [2]: < 100 nM
CC/C(=C\c1ccccc1)[C@@H]1C[C@H]1NC1CC2(CCN(CCC(=O)O)CC2)C1 (racemic) [Compound 225, 3-(2-(((trans)-2-((E)-1-phenylbut-1-en-2-yl)cyclopropyl)amino)-7-azaspiro[3.5]nonan-7-yl)propanoic Acid Bis Trifluoroacetate]		IC50 [2]: < 100 nM
O=C(O)CN1CCC(CNC2CC2/C=C/c2ccccc2)CC1 (centres unmarked) [Compound 111, (E)-3-(4-(((2-styrylcyclopropyl)amino)methyl)piperidin-1-yl)acetic acid]		IC50 [3]: < 100 nM
CC/C(=C\c1ccccc1)[C@@H]1C[C@H]1NCCC(C)(C)N (racemic) [Compound 240]		IC50 [2]: < 100 nM
C/C(=C\c1ccccc1)[C@@H]1C[C@H]1N[C@H]1CC[C@H](NCCC#N)CC1 (single isomer, unassigned) [Compound 155, 3-(((trans)-4-(((trans)-2-((E)-1-phenylprop-1-en-2-yl)cyclopropyl)amino)cyclohexyl)amino)propanenitrile bis(trifluoroacetic acid) salt]	< 100 nM	
CC(=Cc1ccc(C#N)cc1)C1CC1N (centres unmarked) [Compound 129, 4-(2-(2-aminocyclopropyl)prop-1-en-1-yl)benzonitrile Hydrochloride]		IC50: > 10000 nM
C/C(=C\c1ccccc1)[C@@H]1C[C@H]1NCC1CCN(CCC#N)CC1 (racemic) [Compound 135, 3-(4-((((trans)-2-((E)-1-phenylprop-1-en-2-yl)cyclopropyl)amino)methyl)piperidin-1-yl)propanenitrile dihydrochloride]	< 100 nM	
CC/C(=C\c1ccccc1)[C@@H]1C[C@H]1N[C@H]1CC[C@@H](N)CC1 (racemic) [Compound 168, (cis)-N^1-((trans)-2-((E)-1-phenylbut-1-en-2-yl)cyclopropyl)cyclohexane-1,4-diamine Dihydrochloride]	< 100 nM	
CC/C(=C\c1ccccc1)[C@@H]1C[C@H]1N[C@H]1CC[C@@H](NCC(C)(C)C#N)CC1 (single isomer, unassigned) [Compound 158, 2.2-dimethyl-3-(((cis)-4-(((trans)-2-((E)-1-phenylbut-1-en-2-yl)cyclopropyl)amino)cyclohexyl)amino)propanenitrile bis(trifluoroacetic acid salt)]	< 100 nM	
CC/C(=C\c1ccccc1)[C@@H]1C[C@H]1NCCC1CN(Cc2ccc(C(=O)O)cc2)C1 (racemic) [Compound 241]		IC50 [2]: < 100 nM
CC/C(=C\c1ccccc1)[C@@H]1C[C@H]1NC1CCN(Cc2ccc(C(=O)O)cc2)CC1 (racemic) [Compound 128, 4-((4-(((trans)-2-((E)-1-phenylbut-1-en-2-yl)cyclopropyl)amino)piperidin-1-yl)methyl)benzoic acid bis-trifluoroacetic acid salt]	< 100 nM	
CC/C(=C\c1ccccc1)[C@@H]1C[C@H]1NCC1CCN(Cc2ccc(C(=O)O)cc2)CC1 (racemic) [Compound 163, 4-((4-((((trans)-2-((E)-1-phenylbut-1-en-2-yl)cyclopropyl)amino)methyl)piperidin-1-yl)methyl)benzoic acid bis trifluoroacetic acid salt]	< 100 nM	
O=C(O)CCN1CCC(CNC2CC2/C=C/c2ccccc2)CC1 (centres unmarked) [Compound 105, (E)-3-(4-(((2-styrylcyclopropyl)amino)methyl)piperidin-1-yl)propanoic acid]		IC50 [3]: 100 to 1000 nM
CC/C(=C\c1ccccc1)[C@@H]1C[C@H]1NC1CC2(CCN(Cc3ccc(C(=O)O)cc3)CC2)C1 (racemic) [Compound 227, 4-((2-(((trans)-2-((E)-1-phenylbut-1-en-2-yl)cyclopropyl)amino)-7-azaspiro[3.5]nonan-7-yl)methyl)benzoic acid dihydrochloride]		IC50 [2]: < 100 nM
CC/C(=C\c1ccccc1)[C@@H]1C[C@H]1NC1CC2(C1)CN(Cc1ccc(C(=O)O)nc1)C2 (single isomer, unassigned) [Compound 251]		IC50 [2]: < 100 nM
CC/C(=C\c1ccccc1)[C@@H]1C[C@H]1NC1CC2(C1)CN(CC(C)(C)C(=O)O)C2 (racemic) [Compound 229]		IC50 [2]: < 100 nM
COCCNC1CCC(N[C@@H]2C[C@H]2/C(C)=C/c2ccccc2)CC1 (single isomer, unassigned) [Compound 143, (trans)-N1-(2-methoxyethyl)-N4-((trans)-2-((E)-1-phenylprop-1-en-2-yl)cyclopropyl)cyclohexane-1,4-diamine bis(trifluoroacetic acid salt)]	< 100 nM	
C(=C\C1CC1NCC1CCN(Cc2ccccc2)CC1)/c1ccccc1 (centres unmarked) [Compound 106]		IC50 [3]: 100 to 1000 nM
CC/C(=C\c1ccccc1)[C@@H]1C[C@H]1NC1CC2(C1)CN(CCC(=O)O)C2 (racemic) [Compound 230]		IC50 [2]: < 100 nM
C/C(=C\c1ccccc1)[C@@H]1C[C@H]1N[C@H]1CC[C@@H](NCCCC(=O)O)CC1 (racemic) [Compound 165, 4-(((cis)-4-(((trans)-2-((E)-1-phenylprop-1-en-2-yl)cyclopropyl)amino)cyclohexyl)amino)butanoic Acid bis(trifluoroacetic Acid) Salt]	< 100 nM	

Second part, led by results:

IC50 [1]	SMILES	other results
< 100 nM	CC/C(=C\c1ccccc1)[C@@H]1C[C@H]1N[C@H]1CC[C@@H](NCc2ccc(C(=O)O)cc2)CC1 (racemic) [Compound 176, 4-((((trans)-4-(((trans)-2-((E)-1-phenylbut-1-en-2-yl)cyclopropyl)amino)cyclohexyl)amino)methyl)benzoic Acid Dihydrochloride]	
< 100 nM	COCC/C(=C\c1ccccc1)[C@@H]1C[C@H]1NC1CCC(NCc2ccc(C(=O)O)nc2)CC1 (mixture of isomers) [Compound 185, 5-((((trans)-4-(((trans)-2-((E)-4-methoxy-1-phenylbut-1-en-2-yl)cyclopropyl)amino)cyclohexyl)amino)methyl)picolinic Acid bis(trifluoroacetic Acid) Salt]	
< 100 nM	CC/C(=C\c1ccccc1)[C@@H]1C[C@H]1N[C@H]1CC[C@H](NCC(=O)O)CC1 (racemic) [Compound 182, 2-(((trans)-4-(((trans)-2-((E)-1-phenylbut-1-en-2-yl)cyclopropyl)amino)cyclohexyl)amino)acetic acid]	
100 to 1000 nM	C/C(=C\c1ccccc1)[C@@H]1C[C@H]1NC1CCN(Cc2ccc(C(=O)O)cc2)CC1 [compound 192]	
< 100 nM	CC/C(=C\c1ccccc1)[C@@H]1C[C@H]1N[C@H]1CC[C@H](NCc2ccc(C(=O)O)cc2)CC1 (racemic) [Compound 218, 4-((((trans)-4-(((trans)-2-((E)-1-phenylbut-1-en-2-yl)cyclopropyl)amino)cyclohexyl)amino)methyl)benzoic Acid Dihydrochloride]	
< 100 nM	CC/C(=C\c1ccccc1)[C@@H]1C[C@H]1NC1CCC(NCc2ccc(C(=O)O)nc2)CC1 (mixture of isomers) [Compound 224, 5-((((trans)-4-(((trans)-2-((E)-1-phenylbut-1-en-2-yl)cyclopropyl)amino)cyclohexyl)amino)methyl)picolinic acid]	
< 100 nM	C/C(=C\c1ccccc1)[C@@H]1C[C@H]1NC1CCN(CCNS(C)(=O)=O)CC1 (racemic) [Compound 205, N-(2-(4-(((trans)-2-(E)-1-phenylprop-1-en-2-yl)cyclopropyl)amino)piperidin-1-yl)ethyl)methanesulfonamide Dihydrochloride]	
< 100 nM	CC(C)/C(=C\c1ccccc1)[C@@H]1C[C@H]1NC1CCN(Cc2ccc(C(=O)O)cc2)CC1 (racemic) [Compound 179, 4-((4-(((trans)-2-((E)-3-methyl-1-phenylbut-1-en-2-yl)cyclopropyl)amino)piperidin-1-yl)methyl)benzoic Acid bis(trifluoroacetic Acid) Salt]	
< 100 nM	C/C(=C\c1ccccc1)[C@@H]1C[C@H]1NC1CCN(Cc2ccc(C(=O)O)cn2)CC1 (racemic) [Compound 203, 6-((4-(((trans)-2-((E)-1-phenylprop-1-en-2-yl)cyclopropyl)amino)piperidin-1-yl)methyl)nicotinic Acid Dihydrochloride]	
< 100 nM	C/C(=C\c1ccc(-c2cnn(C)c2)cc1)[C@@H]1C[C@H]1NC1CCNCC1 (racemic) [Compound 175]	
> 10000 nM	C/C(=C\c1ccccc1)[C@@H]1C[C@H]1NC1CCN(CCOCC(=O)O)CC1 (racemic) [Compound 204, 2-(2-(4-(((trans)-2-((E)-1-phenylprop-1-en-2-yl)cyclopropyl)amino)piperidin-1-yl)ethoxy)acetic Acid Dihydrochloride]	
